This note sets out measurements from patent US6166085A, “Method of producing analgesia” (priority 1996, dated 2000).

Data set [1] relates to sciatic nerve compound action potential. In words: Rat sciatic nerve compound action potential in vivo, direct application. The conditions noted are these: for blockade of sciatic nerve compound action potential (in words): direct application, metabolites 5 mg, 10 min. Further details: species or system Harlan Sprague Dawley rats. The method, then: Male Harlan Sprague Dawley rats (300-350 g) were anesthetized with pentobarbital/diazepam. The sciatic nerves were sequentially and bilaterally exposed by sharp/blunt dissection from the popliteal region proximally. Electrodes were placed at the sciatic notch (stimulating), and the interossei (recording); a grounding electrode was applied remote from the field. Baseline compound action potential (CAP) (A alpha/beta) wave heights (mV) in response to stimulation 1× per minute were recorded for ten minutes to obtain a stable reference. One drug/vehicle solution was applied per nerve, at mid-nerve (mid-thigh) level, in a volume of 250 μl, and compound action potential wave height then was recorded 1× per minute for ten minutes after application.

Another data set has as its system mechanical allodynia. Description: Mechanical allodynia in rat model of peripheral neuropathy (L5/L6 spinal nerve ligation), intrathecal, Example 2. The following applies: for effect on mechanical allodynia (50% response threshold), 0.6 μmol: 0.6 μmol intrathecal. In kind it is in vivo, Sprague-Dawley rats. The method, then:
Experiments carried out in support of the present invention were performed in a rat model of peripheral neuropathy detailed in Example 2. Briefly, in the model used, rats are subjected to a surgical procedure, described by Kim and Chung (1992), designed to reproducibly injure peripheral nerves (spinal nerves L5 and L6). These rats develop a hyperesthetic state, which can be measured using one or more paradigms known in the art. Here, allodynia was measured by stimulation of neuropathic rat hindlimb using wire hairs having graded degrees of stiffness.
[…]. Test solutions at pH 6.58 were administered intrathecally as described above. Mechanical allodynia was measured by pressing nylon filaments of varying diameters against the paw. Data are expressed in terms of 50% response threshold, which is the median buckling weight required to evoke paw withdrawal; the lower the stimulus level, the more severe the allodynia.
Male Sprague-Dawley rats (200-350 gm) were prepared with chronic lumbar intrathecal catheters inserted under halothane anesthesia (Yaksh and Rudy). Animals were placed in a prone position and the left paraspinal muscles were separated from the spinous processes at the L4 -S2 levels, as described by Kim et al. The left L5 and L6 nerve roots were exposed and tightly ligated with 6-0 surgical silk suture. The rats were allowed to recover from anesthesia. Allodynia was typically observed to occur beginning 1-2 days post surgery and continuing for as long as 45 days. For testing, animals were placed in plastic cubicles with open wire mesh bottoms. Compound dissolved in preservative-free saline solution was administered in a volume of 10 μl through the intrathecal catheter, followed by 10 μl saline to flush the catheter line. Animals were tested for allodynia at various time points after drug treatment, as described below.
To assess the threshold of a non-noxious stimulus required to produce a left hind paw withdrawal (allodynia), Von Frey hairs (ranging from 0.4-15 grams), were systematically applied to the surgically treated hind paw. Failure to evoke a response was cause to test the next stiffer hair. Evocation of a brisk withdrawal response was cause to test the next lower stimulus intensity. This paradigm was repeated according to a statistical method (Dixon, 1976) to define the 50% response threshold.
Data in FIG. 6 are expressed in terms of 50% response threshold, which is the median buckling weight required to evoke paw withdrawal; the lower the stimulus level, the more severe the allodynia. Allodynia thresholds, measured 30 minutes after injection, were plotted against dosage. Each point represents a value for a single animal.

Data set [2] in a line: Observation of motor dysfunction and overt behavior / side effects. In kind it is in vivo, Sprague-Dawley rats. The conditions noted are these: for overt changes in behavior / adverse side effects, formalin test: formalin test studies; for overt changes in behavior / adverse side effects, formalin test / adverse side effects, neuropathy model: intrathecal; for adverse side effects, neuropathy model: neuropathic rats, 3-hydroxy MEGX 0.3 and 0.6 μmol, lidocaine 0.6 μmol. The source says: Animals were also observed for the appearance of general motor dysfunction,as evidenced by inability to ambulate symmetrically and for any other overt signs of unusual activity.

In data set [3] the test system is formalin-induced nociceptive responses. Description: Rat formalin test (paw flinching), intrathecal drug. In kind it is in vivo, Sprague-Dawley rats. The source says: One such model, for response to an acute stimulus, is the rat formalin test. This test reflects several levels of processing of nociceptive information in the spinal cord (see Wheeler-Aceto, et al. 1990; Wheeler-Aceto, et al., 1991). […] This second phase is thought to represent a state of facilitated processing evoked by the afferent input present during phase 1 and to involve release of at least two substances, glutamate and a, tachykinin, based on pharmacological evidence (Yamamoto and Yaksh, 1991, 1992).
In the rat formalin test, a standard dose of formalin is injected into the rat paw, and flexions of the paw are quantitated over the following 90 minute period (Example 1). A biphasic response pattern is typically observed, with numerous responses observed during the period 5 min. after injection (Phase 1) and a second phase (Phase 2) which occurs during the period about 10-60 minutes following injection. The mean number of flinches per minute is recorded as a function of time.
Quantitation of responses during each phase is made by calculation of area under the curve of flinches/min., as shown in FIGS. 2B-2C.
FIGS. 2, 3 and 5 show results of experiments in which varying doses of 3-hydroxy MEGX designated 3-hydroxy MEGX, were tested for effects on the formalin response in rats. A 5% formalin solution was injected subcutaneously into the hindpaw of Sprague-Dawley rats. Ten minutes prior to formalin injection, 3-hydroxy MEGX was administered by bolus injection through an indwelling spinal (intrathecal) catheter terminating at the lumbar enlargement. For the results shown in FIGS. 2A-2C, dosing solutions were acidified to pH 6.58 with HCl. Injection volume was 20 μl.
In the standard rat formalin test, as described above, the test substance is administered prior to formalin injection. […]
Rats (male Sprague-Dawley, 275-300 g, Harlan Industries, Indianapolis, Ind.) were implanted with lumbar intrathecal catheters under halothane anesthesia (Yaksh and Rudy, 1976). Catheters (Polyethlyene PE-10) extended from the cisterna to the rostral edge of the lumbar enlargement. Three to five days after implant, animals without motor dysfunction were tested. Drugs tested in this assay were dissolved in sterile saline (0.9% NaCl) and injected in a volume of 10 μl followed by 10 μl sterile saline to clear the catheter.
Animals were examined for the effects of drugs given in the formalin test, in which 50 μl of 5% formalin was injected on the plantar surface of the paw of a lightly anesthetized (halothane, 3%) animal. The number of spontaneous flinchings/shakings of the injected paw were counted at intervals after the injection of the formalin.
The area under the curve of flinches/min was calculated for phase 1 (time=0-10 min) and phase 2 (10-60 min). […]

[4] abbreviates: acute Phase 1, intrathecal, 10 min before 5% formalin, pH 6.58.
Where [5] appears, read: lowest dose, 16.5 μg intrathecal, pH 6.58.
Where [6] appears, read: persistent Phase 2, intrathecal, 10 min before 5% formalin, pH 6.58.

“Also recorded” adds a separate entry of the source.

As to `CCNCC(=O)Nc1c(C)ccc(O)c1C` [3-hydroxy MEGX, 2-(ethylamino)-N-(3-hydroxy-2,6-dimethylphenyl) acetamide], in data set [1] (FIG. 12 legend), the “local anesthetic (sodium channel blocking) activity” value was “appears to lack local anesthetic (sodium channel blocking) activity altogether”. Further, the “blockade of sciatic nerve compound action potential (in words)” value in data set [1] (lidocaine 2.5 mg) was “no blockade could be obtained”. In addition, in data set [1] (metabolites at 5 mg, lidocaine 2.5 mg), the “activity in ranking of CAP blockade (Lido>MEGS>3-OH L>>3-OH MEGX=0)” value is 0. Also, in the data set on mechanical allodynia (0.3 μmol intrathecal, pH 6.58), the “effect on mechanical allodynia (50% response threshold), 0.3 μmol” value was “significant analgesic effects”. In addition, the “effect on mechanical allodynia (50% response threshold), 0.6 μmol” value with mechanical allodynia (pH 6.58) is “significant analgesic effects”. Besides, in the data set with mechanical allodynia (intrathecal, single bolus, n=6 animals/treatment), the “time of peak elevation of response (blockade of allodynia)” value was 30 to 60 min. Besides, the “elevation of threshold response” value with mechanical allodynia (intrathecal, varying doses, n=6 animals/treatment) is “resulted in elevation of threshold response”. Besides, the “possible maximum duration of effect of a single bolus injection” value in the data set with mechanical allodynia (intrathecal, "possibly up to") is on record as “up to 20 hours”. Moreover, the “duration of effect of a single bolus injection” value with mechanical allodynia (intrathecal, lasting in excess of) was > 3 h. In addition, the “motor block / motor effects (summary)” value in data set [2] (IT, 3-hydroxy MEGX at effective anti-allodynia dose, MEGX in excess) was “did not cause motor block at an effective anti-allodynia dose; also recorded: no evidence of motor effects”. Besides, in data set [2], the “overt changes in behavior / adverse side effects, formalin test” value is listed as “produced no overt changes in behavior” and the “adverse side effects, neuropathy model” value is “no observable adverse side effects”. Further, in data set [3] (setting [4]), the “Phase 1 ED50 (approximately 50% inhibition)” value amounted to 9.3 µg and the “Phase 1 ED50 (approximately 50% inhibition), molar” value is listed as 42 nmol. Further, in data set [3] (higher doses, intrathecal, pH 6.58, "up to 90 minutes or longer"), the “duration of inhibition, higher doses” value is ≥ 90 min. Besides, in data set [3] (intrathecal after formalin injection, pH 6.58), the “blockade of persistent (Phase 2) nociceptive responses” value was “blocks persistent (Phase 2) nociceptive responses”. Also, the “blockade of formalin-induced acute and persistent nociceptive responses” value in data set [3] (intrathecal, dosing solutions pH 9.2, n=4 animals/group) is given as “dose-dependent blockade”. For the same compound, in data set [3] (setting [5]), the duration of inhibition result is “up to one hour”; the “inhibition of Phase 1 and Phase 2 responses” value is “showed inhibition of both the Phase 1 and Phase 2 responses”. In addition, in data set [3] (setting [6]), the “Phase 2 ED50 (approximately 50% inhibition)” value worked out at 29.9 µg and the “Phase 2 ED50 (approximately 50% inhibition), molar” value was 135 nmol.
In the case of `CCN(CC)CC(=O)Nc1c(C)cccc1C` [lidocaine], in data set [1] (lidocaine 2.5 mg), the “blockade of sciatic nerve compound action potential (in words)” value was “rapid and complete blockade of the sciatic nerve action potential; also recorded: abolished the CAP with ten minutes”. Besides, the “effect on mechanical allodynia (50% response threshold), 0.6 μmol” value with mechanical allodynia (pH 6.58) is “did not block mechanical allodynia”. Moreover, in data set [2] (IT, 500 μg), the “duration of motor dysfunction (hindquarter flaccidity / weakness)” value was “approximately 10 minutes”. In addition, the “motor dysfunction, IT (in words)” value in data set [2] (IT, Example 3, lidocaine and MEGX 500 μg, 3-OH L 58 μg (highest dose soluble in vehicle)) was “acute onset of hindquarter flaccidity”. For the same compound, in data set [2], the “overt changes in behavior / adverse side effects, formalin test” value is reported as “transient hindlimb paresis”; the “adverse side effects, neuropathy model” value is “immediate and transient weakness”. Also, the “effect on formalin-induced nociceptive responses” value in data set [3] (intrathecal, pH 6.58, injection volume 20 μl) is recorded as “no effect on the formalin-induced nociceptive responses”.
